The subject of this test is Barnyard grass (Echinochloa crusgalli L.). Kind of test: Herbicidal activity, foliar spraying (spectrum and SAR study). Format: in vivo. Conditions: SAR study, foliar spray 3 mL of 5 mg/mL; for pest or weed control at 5000 µg/mL: Echinochloa crus-galli, 72 h, read-out: Efficacy of phytotoxic activity; for pest or weed control at 5000 µg/mL / Efficacy of phytotoxic activity: one pot of barnyard grass, at least 3 days after spraying. From the text: All weed, sedge and crop seedlings were planted in 8 cm×8 cm×7.2 cm or 10 cm×10 cm×9 cm plastic pots. Seedlings including pigweed (Amaranthus retroflexus, L.), barnyard grass (Echinochloa crusgalli L.), bindweed (Convolvulus arvensis L.), crabgrass (Digitaria sanguinalis L.), dandelion (Taraxacum officinale F.), lambsquarters (Chenopodium album L.), bluegrass (Poa annua L.), wild mustard (Brassica kaber L.), black nightshade (Solanum nigrum L.), curly dock (Rumex crispus L.), horseweed (Conyza Canadensis L.), sweet corn (Zea may S.) and wheat PR 1404 (Triticum aestivum L.) were planted in Super Soil potting soil. Seedlings including rice M-104 (Oryza saliva L.), sedge (Cyperus difformis L.) and sprangletop (Leptochloa fascicularis Lam) were planted in mud which was collected from rice field (Woodland, Calif., USA). When treated, all seedlings were 15 days old except for rice (10 days), wheat (20 days), corn (20 days) sprangletop (20 days old), sedge (20 days old) and horse weed (70 days old).
Herbicidal activity of the active compound and synthesized compounds was evaluated by foliar spraying. Spraying carrier solution contained 2% ethanol, 0.2% glycosperse O-20 and 0.1% sodium lauryl sulfate. Freshly made solution with the evaluated compound at a concentration of 5 mg/mL was used. In the spectrum study, spraying volume was dependent on the foliar surface area, ranging from approximately 1 to 3 mL/pot plants. One or two pots of plants were treated for each. Number of pots was dependent on both foliar area and availability. In the structure-activity relationship study, one pot of barnyard grass was used and the spraying volume of each compound was 3 mL of 5 mg/mL.
The optimal concentration of sarmentine was 5 mg/mL for excellent control of barnyard grass (Figure 2). Therefore, such a concentration was subjected to herbicidal spectrum study. Due to the hydrophobic property of sarmentine, a carrier solution containing 0.2% glycosperse O-20, 2% ethanol and 0.1% sodium lauryl sulfate was used. Although this solution contains a high concentration of surfactants, sarmentine can stay suspended in this solution no more than 15 min. Therefore, sarmentine was made freshly just before spraying.

In the case of `CCCCC/C=C\C=C\C(=O)OCC` [No 3], the pest or weed control at 5000 µg/mL was under 20%.

Consider `CCCCCCC/C=C/C(=O)N1CCCC1` [No 9, N-(Decenoyl)pyrrolidine], for which the pest or weed control at 5000 µg/mL is 80 to 100% and the “Phytotoxic activity relative to sarmentine / toxicity to barnyard grass (in words)” value is “remained the same”.

As for `NC1CCCC1` [No 23, cyclopentylamine, reference compound], the “Phytotoxic activity relative to sarmentine / toxicity to barnyard grass (in words)” value was “non toxic” and the “Efficacy of phytotoxic activity” value is on record as “I”.

For the molecule `C1CCNCC1` [No 25, piperidine, reference compound], the “Phytotoxic activity relative to sarmentine / toxicity to barnyard grass (in words)” value was “non toxic” and the “Efficacy of phytotoxic activity” value is reported as “I”.

As to `O=C(/C=C/c1ccccc1)N1CCCC1` [No 11, N-(trans-Cinnamoyl)pyrrolidine], the pest or weed control at 5000 µg/mL is 80 to 100% and the “Phytotoxic activity relative to sarmentine / toxicity to barnyard grass (in words)” value was “remained the same”.

For `C1CCCNCC1` [No 26, hexamethyleneimine, reference compound], the “Phytotoxic activity relative to sarmentine / toxicity to barnyard grass (in words)” value is recorded as “non toxic” and the “Efficacy of phytotoxic activity” value is listed as “I”.

Consider `CCCCC/C=C\C=C\C(=O)N1CCCCCC1` [No 18, (2E,4Z-Decadienoyl)hexamethleneimine], for which the pest or weed control at 5000 µg/mL was 80 to 100%.

For the molecule `O=C(/C=C/c1ccccc1)N1CCCCC1` [No 15, N-(trans-Cinnamoyl)piperidine], the pest or weed control at 5000 µg/mL lay in the range of 40 to 60%.

Regarding `CCCCC/C=C\C=C\C(=O)N1CCCC1` [No 10, (2E,4Z-Decadienoyl)pyrrolidine], the pest or weed control at 5000 µg/mL was in the range of 80 to 100% and the “Phytotoxic activity relative to sarmentine / toxicity to barnyard grass (in words)” value is “remained the same”.

Regarding `O=C(O)/C=C/c1ccccc1` [No 20, trans-cinnamic acid, reference compound], the pest or weed control at 5000 µg/mL fell in the range of 60 to 80% and the “Phytotoxic activity relative to sarmentine / toxicity to barnyard grass (in words)” value is recorded as “very active”.

In the case of `CCCCCCCCCC(=O)NC1CCCC1` [No 4, N-Cyclopentyldecanamide], the pest or weed control at 5000 µg/mL was under 20%.

With `CCCCCCC/C=C/C(=O)N1CCCCCC1` [No 17, N-(Decenoyl)hexamethyleneimine], the pest or weed control at 5000 µg/mL lay within 80 to 100%.

Take `CCCCC/C=C\C=C\C(=O)NC1CCCC1` [No 6, N-Cyclopentyl 2E,4Z-decadienamide]: the pest or weed control at 5000 µg/mL was under 20%.

Regarding `CCCCCCCCCC(=O)N1CCCCCC1` [No 16, N-(Decanoyl)hexamethyleneimine], the pest or weed control at 5000 µg/mL lay within 80 to 100% and the “Phytotoxic activity relative to sarmentine / toxicity to barnyard grass (in words)” value is “remained the same”.

Consider `O=C(/C=C/c1ccccc1)N1CCCCCC1` [No 19, N-(trans-Cinnamoyl) hexamethleneimine], for which the pest or weed control at 5000 µg/mL is under 20%.

In the case of `CCCCCCCCCC(=O)N1CCCCC1` [No 12, N-(Decanoyl)piperidine], the pest or weed control at 5000 µg/mL fell in the range of 80 to 100% and the “Phytotoxic activity relative to sarmentine / toxicity to barnyard grass (in words)” value is reported as “remained the same”.

Consider `CCCCCCCCCC(=O)N1CCCC1` [No 8, N-(Decanoyl)pyrrolidine], for which the pest or weed control at 5000 µg/mL is 80 to 100% and the “Phytotoxic activity relative to sarmentine / toxicity to barnyard grass (in words)” value was “remained the same”.

For the molecule pyrrolidine [No 24, reference compound], the “Phytotoxic activity relative to sarmentine / toxicity to barnyard grass (in words)” value is on record as “non toxic” and the “Efficacy of phytotoxic activity” value is listed as “I”.

For `CCCCC/C=C\C=C\C(=O)N1CCCCC1` [No 14, (2E,4Z-Decadienoyl)piperidine], the pest or weed control at 5000 µg/mL was 80 to 100%.

As to `CCCCCCC/C=C/C(=O)O` [No 22, 2E-decenoic acid], the pest or weed control at 5000 µg/mL is 80 to 100% and the “Phytotoxic activity relative to sarmentine / toxicity to barnyard grass (in words)” value is “very active”.

On to `O=C(/C=C/c1ccccc1)NC1CCCC1` [No 7, N-Cyclopentylcinnamamide], for which the pest or weed control at 5000 µg/mL is under 20%.

Turning to `CCCCCCC/C=C/C(=O)N1CCCCC1` [No 13, N-(Decenoyl)piperidine], the pest or weed control at 5000 µg/mL is 80 to 100%.

The values are drawn from US8957000B2, “Use of sarmentine and its analogs for controlling plant pests” (Marrone Bio Innovations, Inc., priority 2009, dated 2015).
